Data: US11008317B2, “Triazolopyridine inhibitors of myeloperoxidase and/or EPX” (priority 2016, dated 2021)
pIC50: −log10 of the molar value.

Assays:
[1] = biological target: T1, myeloperoxidase (Homo sapiens, UniProt P05164); assay: MPO Chlorination Assay (APF Assay); assay type: biochemical; details: potency range class, read-out: APF Assay IC50 value
T1 sequence (P05164 49-745): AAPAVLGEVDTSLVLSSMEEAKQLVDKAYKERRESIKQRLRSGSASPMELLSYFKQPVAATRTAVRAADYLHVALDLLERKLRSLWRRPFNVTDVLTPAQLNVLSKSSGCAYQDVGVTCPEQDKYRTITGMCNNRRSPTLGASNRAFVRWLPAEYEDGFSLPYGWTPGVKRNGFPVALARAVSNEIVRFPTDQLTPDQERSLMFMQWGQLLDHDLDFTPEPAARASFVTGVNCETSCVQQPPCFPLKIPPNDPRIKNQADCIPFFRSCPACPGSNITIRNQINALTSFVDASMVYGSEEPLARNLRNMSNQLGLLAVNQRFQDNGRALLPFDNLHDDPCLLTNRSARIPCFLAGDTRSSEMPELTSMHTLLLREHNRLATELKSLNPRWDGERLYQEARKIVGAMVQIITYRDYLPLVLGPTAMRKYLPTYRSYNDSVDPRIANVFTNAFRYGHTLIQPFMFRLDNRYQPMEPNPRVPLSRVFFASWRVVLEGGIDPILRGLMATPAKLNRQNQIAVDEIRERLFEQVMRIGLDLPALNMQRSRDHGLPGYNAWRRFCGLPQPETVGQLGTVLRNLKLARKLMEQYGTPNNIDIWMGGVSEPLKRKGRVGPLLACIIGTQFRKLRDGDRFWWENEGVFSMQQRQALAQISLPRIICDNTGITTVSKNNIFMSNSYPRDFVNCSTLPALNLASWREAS

[2] = biological target: T1, myeloperoxidase; assay: MPO Peroxidation Assay (Amplex Red Assay); assay type: biochemical; details: potency range class, read-out: Amplex Red Assay IC50 value

Cn1c(C[C@H](c2ccccc2)c2cc(N)nc3[nH]nnc23)nc2c(-c3ccccc3)cccc21 [Example 262, (R)-7-(2-(1-methyl-4-phenyl-1H-benzo[d]imidazol-2-yl)-1-phenylethyl)-3H-[1,2,3]triazolo [4,5-b]pyridin-5-amine]
pIC50 [1]: 5.00 to 6.00 | pIC50 [2]: 5.00 to 6.00

Nc1cc([C@H](Cc2nc3ccc(Br)cc3s2)c2ccccc2)c2nn[nH]c2n1 [Example 263, (R)-7-(2-(6-bromobenzo [d]thiazol-2-yl)-1-phenylethyl)-3H-[1,2,3]triazolo[4,5-b] pyridin-5-amine]
pIC50 [1]: 6.00 to 7.00 | pIC50 [2]: 6.00 to 7.00
